# Like-named read-outs stand apart in the source and are kept apart here.
# Tests used:
# Assay in all cases: whole plant or invertebrate
# Assay type in all cases: in vivo
# [1] = system: silverleaf whitefly (Bemisia argentifolii Bellows and Perring); settings: Bemisia argentifolii, in Gossypium hirsutum; for mortality at 100 ppm: rate 100 ppm; for mortality at 1000 ppm: rate 1000 ppm
# Description: For evaluating control of silverleaf whitefly (Bemisia argentifolii Bellows and Perring) through contact and/or systemic means, each test unit consisted of a small open container with a 12- to 14-day-old cotton plant inside. This was pre-infested by placing test units into cages infested with adult whiteflies so that oviposition on the cotton leaves could occur. The adults were removed from the plants with an air-blast nozzle, and the test units were capped. The test units were then stored 2 to 3 days before spraying.
# (§1) Test compounds were formulated using a solution containing 10% acetone, 90% water and 300 ppm X-77® Spreader Lo-Foam Formula non-ionic surfactant containing alkylarylpolyoxyethylene, free fatty acids, glycols and 2-propanol (Loveland Industries, Inc.) to provide the desired concentration in ppm. Formulated test solutions were then applied in 1 mL volumes through a SUJ2 atomizer nozzle with 1/8 JJ custom body (Spraying Systems Co.) positioned 1.27 cm (0.5 inches) above the top of each test unit.
# The results for all experimental compositions in this test were replicated three times. After spraying of the formulated test composition, each test unit was allowed to dry for 1 hour and the cap removed. The test units were held for 13 days in a growth chamber at 28° C. and 50-70% relative humidity.
# [2] = system: corn planthopper (Peregrines maidis); settings: for mortality at 1000 ppm: rate 1000 ppm
# Experimental: as §1
# For evaluating control of corn planthopper (Peregrines maidis) through contact and/or systemic means, each test unit consisted of a small open cylindrical container with a 3- to 4-day-old corn (maize) plant (spike) inside. White sand was added to the top of the soil prior to application. Test compounds were formulated and sprayed with 3 replications as described for Test A. After spraying, the test units were allowed to dry for 1 hour before they were post-infested with 10 to 20 corn planthoppers (18- to 20-day-old nymphs) by sprinkling them onto the sand with a salt shaker. A black, screened cap was placed on the top of each container. The test units were held for 6 days in a growth chamber at 19-21° C. and 50-70% relative humidity.
# [3] = system: potato leafhopper (Empoasca fabae Harris); settings: Empoasca fabae; for mortality at 10 ppm: rate 10 ppm; for mortality at 100 ppm: rate 100 ppm; for mortality at 1000 ppm: rate 1000 ppm
# Experimental: as §1
# […] White sand was added to the top of the soil, and one of the primary leaves was excised prior to application. Test compounds were formulated and sprayed with 3 replications as described for Test A. After spraying, the test units were allowed to dry for 1 hour before they were infested with 5 potato leafhoppers (18- to 21-day-old adults). A black, screened cap was placed on the top of each container. The test units were held for 6 days in a growth chamber at 19-21° C. and 50-70% relative humidity.
# [4] = system: green peach aphid (Myzus persicae Sulzer); settings: Myzus persicae, in Raphanus sativus; for mortality at 10 ppm: rate 10 ppm; for mortality at 100 ppm: rate 100 ppm; for mortality at 1000 ppm: rate 1000 ppm
# Experimental: as §1
# (§2) For evaluating control of green peach aphid (Myzus persicae Sulzer) through contact and/or systemic means, each test unit consisted of a small open container with a 12- to 15-day-old radish plant inside. This was pre-infested by placing on a leaf of the test plant 30 to 40 aphids on a piece of leaf excised from a culture plant (cut-leaf method). The larvae moved onto the test plant as the leaf piece desiccated. After pre-infestation, the soil of the test unit was covered with a layer of sand.
# (§3) Test compounds were formulated and sprayed as described in Test A, replicated three times. After spraying of the formulated test compound, each test unit was allowed to dry for 1 hour and then a black, screened cap was placed on top. The test units were held for 6 days in a growth chamber at 19-21° C. and 50-70% relative humidity.
# [5] = system: western flower thrip (Frankliniella occidentalis Pergande); settings: Frankliniella occidentalis; for mortality at 500 ppm: rate 500 ppm; for mortality at 1000 ppm: rate 1000 ppm; for mortality at 10 ppm: rate 10 ppm
# Experimental: as §1
# For evaluating control of the western flower thrip (Frankliniella occidentalis Pergande) through contact and/or systemic means, each test unit consisted of a small open container with a 5- to 7-day-old bean (var. Soleil) plant inside.
# Test solutions were formulated and sprayed with 3 replications as described for Test A. After spraying, the test units were allowed to dry for 1 hour, 22 to 27 adult thrips were added to each unit and then a black, screened cap was placed on top. The test units were held for 7 days at 25° C. and 45-55% relative humidity.
# [6] = system: cotton melon aphid (Aphis gossypii Glover); settings: Aphis gossypii; for mortality at 10 ppm: rate 10 ppm; for mortality at 100 ppm: rate 100 ppm; for mortality at 1000 ppm: rate 1000 ppm
# Experimental: as §1
# as §2, with “cotton melon” for “green peach”, “(Aphis gossypii Glover)” for “(Myzus persicae Sulzer)”, “6-” for “12-”, “7-day-old cotton” for “15-day-old radish”
# as §3, with “described for” for “described in”, “Test A. The applications were” for “Test A,”, “test compounds,” for “test compound,”
# [7] = Table 2B, rate 10 ppm, read-out: % mortality (obs)
# [8] = Table 2B, read-out: % mortality (obs)
# [9] = Corn Plant Hopper, read-out: % mortality (obs)
# [10] = alone, read-out: % mortality (obs)
# [11] = Green Peach Aphid, read-out: % mortality (obs)
# [12] = 168 h, single compound, spray, 7 days, read-out: % mortality (obs)
# [13] = rate 1 ppm, alone, read-out: % mortality (obs)
structure (smiles),measurement,setting,value
Nc1nc(N)nc(NC2CC2)n1 [Cyromazine],mortality at 10 ppm,[1]; [7],1%
same,mortality at 100 ppm,[1]; [8],2%
same,mortality at 1000 ppm,[1]; [8],2%
same,mortality at 200 ppm,"[2]; Corn Plant Hopper, rate 200 ppm, read-out: % mortality (obs)",4%
same,mortality at 500 ppm,"[2]; Corn Plant Hopper, rate 500 ppm, read-out: % mortality (obs)",8%
same,mortality at 1000 ppm,[2]; [9],8%
same,mortality at 10 ppm,[3]; [10],7%
same,mortality at 100 ppm,[3]; [10],0%
same,mortality at 1000 ppm,[3]; [10],0%
same,mortality at 10 ppm,[4]; [11],24%
same,mortality at 100 ppm,[4]; [11],33%
same,mortality at 1000 ppm,[4]; [11],65%
same,mortality at 200 ppm,"[5]; 168 h, rate 200 ppm, single compound, spray, 7 days, read-out: % mortality (obs)",70%
same,mortality at 500 ppm,[5]; [12],80%
same,mortality at 1000 ppm,[5]; [12],70%
same,mortality at 10 ppm,[6]; read-out: % mortality (obs),23%
same,mortality at 100 ppm,[6]; read-out: % mortality (obs),34%
same,mortality at 1000 ppm,[6]; read-out: % mortality (obs),28%
CC1(C)[C@H](C(=O)O[C@H](C#N)c2cccc(Oc3ccccc3)c2)[C@@H]1C=C(Br)Br [Deltamethrin],mortality at 30 ppm,"[1]; Table 2B, rate 30 ppm, read-out: % mortality (obs)",2%
same,mortality at 40 ppm,"[1]; Table 2B, rate 40 ppm, read-out: % mortality (obs)",0%
same,mortality at 50 ppm,"[1]; Table 2B, rate 50 ppm, read-out: % mortality (obs)",1%
same,mortality at 0.1 ppm,"[2]; Corn Plant Hopper, rate 0.1 ppm, read-out: % mortality (obs)",11%
same,mortality at 0.2 ppm,"[2]; Corn Plant Hopper, rate 0.2 ppm, read-out: % mortality (obs)",14%
same,mortality at 0.3 ppm,"[2]; Corn Plant Hopper, rate 0.3 ppm, read-out: % mortality (obs)",7%
same,mortality at 0.1 ppm,"[3]; rate 0.1 ppm, alone, read-out: % mortality (obs)",7%
same,mortality at 0.2 ppm,"[3]; rate 0.2 ppm, alone, read-out: % mortality (obs)",7%
same,mortality at 1 ppm,[3]; [13],60%
same,mortality at 250 ppm,"[4]; Green Peach Aphid, rate 250 ppm, read-out: % mortality (obs)",9%
same,mortality at 300 ppm,"[4]; Green Peach Aphid, rate 300 ppm, read-out: % mortality (obs)",3%
same,mortality at 1000 ppm,[4]; [11],9%
same,mortality at 10 ppm,[5]; [12],70%
same,mortality at 1000 ppm,[5]; [12],70%
same,mortality at 3000 ppm,"[5]; 168 h, rate 3000 ppm, single compound, spray, 7 days, read-out: % mortality (obs)",50%
same,mortality at 0.1 ppm,"[6]; rate 0.1 ppm, read-out: % mortality (obs)",52%
same,mortality at 0.2 ppm,"[6]; rate 0.2 ppm, read-out: % mortality (obs)",39%
same,mortality at 0.3 ppm,"[6]; rate 0.3 ppm, read-out: % mortality (obs)",88%
CCOC(=O)NCCOc1ccc(Oc2ccccc2)cc1 [Fenoxycarb],mortality at 2 ppm,"[1]; Table 2B, rate 2 ppm, read-out: % mortality (obs)",0%
same,mortality at 10 ppm,[1]; [7],0%
same,mortality at 20 ppm,"[1]; Table 2B, rate 20 ppm, read-out: % mortality (obs)",21%
same,mortality at 10 ppm,"[2]; Corn Plant Hopper, rate 10 ppm, read-out: % mortality (obs)",8%
same,mortality at 100 ppm,"[2]; Corn Plant Hopper, rate 100 ppm, read-out: % mortality (obs)",2%
same,mortality at 1000 ppm,[2]; [9],5%
same,mortality at 10 ppm,[3]; [10],0%
same,mortality at 100 ppm,[3]; [10],20%
same,mortality at 1000 ppm,[3]; [10],0%
same,mortality at 10 ppm,[4]; [11],17%
same,mortality at 100 ppm,[4]; [11],16%
same,mortality at 1000 ppm,[4]; [11],18%
same,mortality at 10 ppm,[5]; [12],40%
same,mortality at 100 ppm,"[5]; 168 h, rate 100 ppm, single compound, spray, 7 days, read-out: % mortality (obs)",70%
same,mortality at 1000 ppm,[5]; [12],60%
same,mortality at 10 ppm,[6]; read-out: % mortality (obs),16%
same,mortality at 100 ppm,[6]; read-out: % mortality (obs),23%
same,mortality at 1000 ppm,[6]; read-out: % mortality (obs),34%
CC1(C)CNC(=NN=C(/C=C/c2ccc(C(F)(F)F)cc2)/C=C/c2ccc(C(F)(F)F)cc2)NC1 [Hydramethylnon],mortality at 10 ppm,[1]; [7],2%
same,mortality at 100 ppm,[1]; [8],1%
same,mortality at 1000 ppm,[1]; [8],0%
same,mortality at 0.01 ppm,"[2]; Corn Plant Hopper, rate 0.01 ppm, read-out: % mortality (obs)",7%
same,mortality at 1 ppm,"[2]; Corn Plant Hopper, rate 1 ppm, read-out: % mortality (obs)",1%
same,mortality at 2 ppm,"[2]; Corn Plant Hopper, rate 2 ppm, read-out: % mortality (obs)",6%
same,mortality at 0.01 ppm,"[3]; rate 0.01 ppm, alone, read-out: % mortality (obs)",0%
same,mortality at 1 ppm,[3]; [13],27%
same,mortality at 2 ppm,"[3]; rate 2 ppm, alone, read-out: % mortality (obs)",60%
same,mortality at 500 ppm,"[4]; Green Peach Aphid, rate 500 ppm, read-out: % mortality (obs)",18%
same,mortality at 1000 ppm,[4]; [11],8%
same,mortality at 1500 ppm,"[4]; Green Peach Aphid, rate 1500 ppm, read-out: % mortality (obs)",7%
same,mortality at 10 ppm,[5]; [12],60%
same,mortality at 500 ppm,[5]; [12],50%
same,mortality at 1000 ppm,[5]; [12],40%
same,mortality at 500 ppm,"[6]; rate 500 ppm, read-out: % mortality (obs)",21%
same,mortality at 1000 ppm,[6]; read-out: % mortality (obs),40%
same,mortality at 1500 ppm,"[6]; rate 1500 ppm, read-out: % mortality (obs)",39%
O=[N+]([O-])NC1=NCCN1Cc1ccc(Cl)nc1 [Imidacloprid],mortality at 10 ppm,"[1]; Table 2A, Imidacloprid 10 ppm, read-out: % Mortality (observed)",1%
same,mortality at 22 ppm,"[1]; Table 2A, Imidacloprid 22 ppm, read-out: % Mortality (observed)",2%
same,mortality at 48 ppm,"[1]; Table 2A, Imidacloprid 48 ppm, read-out: % Mortality (observed)",25%
same,mortality at 0.1 ppm,"[2]; Table 5A, Imidacloprid 0.1 ppm, read-out: % Mortality (observed)",27%
same,mortality at 0.3 ppm,"[2]; Table 5A, Imidacloprid 0.3 ppm, read-out: % Mortality (observed)",37%
same,mortality at 1 ppm,"[2]; Table 5A, Imidacloprid 1 ppm, read-out: % Mortality (observed)",60%
same,mortality at 0.2 ppm,"[3]; Table 4A, Imidacloprid 0.2 ppm, read-out: % Mortality (observed)",20%
same,mortality at 0.4 ppm,"[3]; Table 4A, Imidacloprid 0.4 ppm, read-out: % Mortality (observed)",0%
same,mortality at 1 ppm,"[3]; Table 4A, Imidacloprid 1 ppm, read-out: % Mortality (observed)",20%
same,mortality at 0.08 ppm,"[4]; Table 7A, Imidacloprid 0.08 ppm, read-out: % Mortality (observed)",4%
same,mortality at 0.15 ppm,"[4]; Table 7A, Imidacloprid 0.15 ppm, read-out: % Mortality (observed)",12%
same,mortality at 0.26 ppm,"[4]; Table 7A, Imidacloprid 0.26 ppm, read-out: % Mortality (observed)",50%
same,mortality at 11 ppm,"[5]; Table 3A, Imidacloprid 11 ppm, read-out: % Mortality (observed)",20%
same,mortality at 77 ppm,"[5]; Table 3A, Imidacloprid 77 ppm, read-out: % Mortality (observed)",37%
same,mortality at 561 ppm,"[5]; Table 3A, Imidacloprid 561 ppm, read-out: % Mortality (observed)",90%
same,mortality at 0.05 ppm,"[6]; Table 6A, Imidacloprid 0.05 ppm, read-out: % Mortality (observed)",12%
same,mortality at 0.3 ppm,"[6]; Table 6A, Imidacloprid 0.3 ppm, read-out: % Mortality (observed)",10%
same,mortality at 2.1 ppm,"[6]; Table 6A, Imidacloprid 2.1 ppm, read-out: % Mortality (observed)",40%

# From patent publication US8937089B2, “Synergistic mixtures of anthranilamide invertebrate pest control agents” (priority 2004, dated 2015)
